Read-outs that look alike come from different tables or passages of the source.
Key:
Type in all cases: in vivo
[1] = tested on: duck salad (Heteranthera limosa); experiment: Test B flooded paddy test; details: Heteranthera limosa, Flood, 1000 g ai/ha; scale 0 to 100; read-out: Plant response rating, Ducksalad
Summary of the method: (§1)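 Rice, umbrella sedge, duck salad and barnyardgrass grown to 2-leaf stage under flooded paddy conditions and treated with formulated test chemicals. Kept in greenhouse 13–15 days, then visually rated against untreated controls on a 0–100 scale (0 no effect, 100 complete control).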

[2] = tested on: umbrella sedge (Cyperus difformis); experiment: Test B flooded paddy test; details: Cyperus difformis, Flood, 1000 g ai/ha; scale 0 to 100; read-out: Plant response rating, Sedge, Umbrella
Summary of the method: as §1

rice (Oryza sativa) = experiment: Test B flooded paddy test; details: Oryza sativa, Flood, 1000 g ai/ha; scale 0 to 100; read-out: Plant response rating, Rice
Summary of the method: as §1

[3] = tested on: barnyardgrass (Echinochloa crus-galli); experiment: Test B flooded paddy test; details: Echinochloa crus-galli, Flood, 1000 g ai/ha; scale 0 (no effect) to 100 (complete control); read-out: Plant response rating, Barnyardgrass
Summary of the method: as §1

wild oat (Avena fatua) = experiment: Test B postemergence; details: Avena fatua, post-emergence
Summary of the method: (§2)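 Under greenhouse conditions, seeded pots and young plants (1- to 4-leaf, 2 to 18 cm) were treated at the same time with test chemicals in a non-phytotoxic solvent mixture containing surfactant. Response was assessed visually after 13 to 15 days, from 0 (no effect) to 100 (complete control).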

[4] = tested on: blackgrass (Alopecurus myosuroides); experiment: Test B postemergence; details: Alopecurus myosuroides, post-emergence
Summary of the method: as §2

[5] = tested on: crabgrass (Digitaria sanguinalis); experiment: Test B pre/postemergence; details: Digitaria sanguinalis; for pest or weed control at 125 g/ha: 125 g ai/ha; for pest or weed control at 500 g/ha: 500 g ai/ha
Summary of the method: as §2

[6] = tested on: morningglory (Ipomoea coccinea); experiment: Test B pre/postemergence; details: Ipomoea; for pest or weed control at 125 g/ha: 125 g ai/ha; for pest or weed control at 500 g/ha: 500 g ai/ha
Summary of the method: as §2

[7] = tested on: pigweed (Amaranthus retroflexus); experiment: Test B pre/postemergence; details: Amaranthus retroflexus; for pest or weed control at 125 g/ha: 125 g ai/ha; for pest or weed control at 500 g/ha: 500 g ai/ha
Summary of the method: as §2

[8] = tested on: Surinam grass (Brachiaria decumbens); experiment: Test B pre/postemergence; details: Urochloa decumbens; for pest or weed control at 125 g/ha: 125 g ai/ha; for pest or weed control at 500 g/ha: 500 g ai/ha
Summary of the method: as §2

[9] = tested on: wheat (Triticum aestivum); experiment: Test B pre/postemergence; details: Triticum aestivum; for plant injury at 125 g/ha: 125 g ai/ha; for plant injury at 500 g/ha: 500 g ai/ha
Summary of the method: as §2

[10] = tested on: giant foxtail (Setaria faberii); experiment: Test B pre/postemergence; details: Setaria faberi; for pest or weed control at 125 g/ha: 125 g ai/ha; for pest or weed control at 500 g/ha: 500 g ai/ha
Summary of the method: as §2

[11] = tested on: velvetleaf (Abutilon theophrasti); experiment: Test B pre/postemergence; details: Abutilon theophrasti; for pest or weed control at 125 g/ha: 125 g ai/ha; for pest or weed control at 500 g/ha: 500 g ai/ha
Summary of the method: as §2

[12] = tested on: cocklebur (Xanthium strumarium); experiment: Test B pre/postemergence; details: Xanthium strumarium; for pest or weed control at 125 g/ha: 125 g ai/ha; for pest or weed control at 500 g/ha: 500 g ai/ha
Summary of the method: as §2

[13] = tested on: lambsquarters (Chenopodium album); experiment: Test B pre/postemergence; details: Chenopodium album; for pest or weed control at 125 g/ha: 125 g ai/ha; for pest or weed control at 500 g/ha: 500 g ai/ha
Summary of the method: as §2

corn (Zea mays) = experiment: Test B pre/postemergence; details: Zea mays
Summary of the method: as §2

[14] = tested on: barnyardgrass (Echinochloa crus-galli); experiment: Test B pre/postemergence; details: Echinochloa crus-galli; for pest or weed control at 125 g/ha: 125 g ai/ha; for pest or weed control at 500 g/ha: 500 g ai/ha
Summary of the method: as §2

[15] = pre-emergence, Preemergence, scale 0 to 100 (0 no effect, 100 complete control), read-out: Plant response rating, Wheat

Structure (SMILES): CCOC(=O)c1nc(C2CC2)nc(NN)c1Br [Compound 42]
- pest or weed control at 1000 g/ha [1]: 0%
- pest or weed control at 1000 g/ha [2]: 0%
- plant injury at 1000 g/ha (rice (Oryza sativa)): 0%
- pest or weed control at 1000 g/ha [3]: 0%
- pest or weed control at 125 g/ha (wild oat (Avena fatua); 125 g ai/ha, scale 0 to 100 (0 no effect, 100 complete control), read-out: Oat, Wild plant response rating): 0%
- pest or weed control at 500 g/ha (wild oat (Avena fatua); 500 g ai/ha, scale 0 to 100, read-out: Plant response rating, Oat, Wild): 0%
- pest or weed control at 125 g/ha ([4]; 125 g ai/ha, scale 0 to 100 (0 no effect, 100 complete control), read-out: Blackgrass plant response rating): 30%
- pest or weed control at 500 g/ha ([4]; 500 g ai/ha, scale 0 to 100, read-out: Plant response rating, Blackgrass): 60%
- pest or weed control at 125 g/ha ([5]; post-emergence, Postemergence, scale 0 to 100 (0 no effect, 100 complete control), read-out: Crabgrass plant response rating): 0%
- pest or weed control at 500 g/ha ([5]; post-emergence, Postemergence, scale 0 to 100, read-out: Plant response rating, Crabgrass): 30%
- pest or weed control at 125 g/ha ([5]; pre-emergence, Preemergence, scale 0 to 100 (0 no effect, 100 complete control), read-out: Plant response rating, Crabgrass): 0%
- pest or weed control at 500 g/ha ([5]; pre-emergence, Preemergence, scale 0 to 100 (0 no effect, 100 complete control), read-out: Crabgrass plant response rating): 20%
- pest or weed control at 125 g/ha ([6]; post-emergence, Postemergence, scale 0 to 100 (0 no effect, 100 complete control), read-out: Morningglory plant response rating): 80%
- pest or weed control at 500 g/ha ([6]; post-emergence, Postemergence, scale 0 to 100, read-out: Plant response rating, Morningglory): 90%
- pest or weed control at 125 g/ha ([6]; pre-emergence, Preemergence, scale 0 to 100 (0 no effect, 100 complete control), read-out: Plant response rating, Morningglory): 20%
- pest or weed control at 500 g/ha ([6]; pre-emergence, Preemergence, scale 0 to 100 (0 no effect, 100 complete control), read-out: Morningglory plant response rating): 80%
- pest or weed control at 125 g/ha ([7]; post-emergence, Postemergence, scale 0 to 100 (0 no effect, 100 complete control), read-out: Pigweed plant response rating): 80%
- pest or weed control at 500 g/ha ([7]; post-emergence, Postemergence, scale 0 to 100, read-out: Plant response rating, Pigweed): 90%
- pest or weed control at 125 g/ha ([7]; pre-emergence, Preemergence, scale 0 to 100 (0 no effect, 100 complete control), read-out: Plant response rating, Pigweed): 50%
- pest or weed control at 500 g/ha ([7]; pre-emergence, Preemergence, scale 0 to 100 (0 no effect, 100 complete control), read-out: Pigweed plant response rating): 90%
- pest or weed control at 125 g/ha ([8]; post-emergence, Postemergence, scale 0 to 100 (0 no effect, 100 complete control), read-out: Surinam Grass plant response rating): 0%
- pest or weed control at 500 g/ha ([8]; post-emergence, Postemergence, scale 0 to 100, read-out: Plant response rating, Surinam Grass): 10%
- pest or weed control at 125 g/ha ([8]; pre-emergence, Preemergence, scale 0 to 100 (0 no effect, 100 complete control), read-out: Plant response rating, Surinam Grass): 0%
- pest or weed control at 500 g/ha ([8]; pre-emergence, Preemergence, scale 0 to 100 (0 no effect, 100 complete control), read-out: Surinam Grass plant response rating): 20%
- plant injury at 125 g/ha ([9]; post-emergence, Postemergence, scale 0 to 100 (0 no effect, 100 complete control), read-out: Wheat plant response rating): 50%
- plant injury at 500 g/ha ([9]; post-emergence, Postemergence, scale 0 to 100, read-out: Plant response rating, Wheat): 50%
- plant injury at 125 g/ha [9, 15]: 10%
- plant injury at 500 g/ha [9, 15]: 10%
- pest or weed control at 125 g/ha ([10]; post-emergence, Postemergence, scale 0 to 100 (0 no effect, 100 complete control), read-out: Foxtail, Giant plant response rating): 0%
- pest or weed control at 500 g/ha ([10]; post-emergence, Postemergence, scale 0 to 100, read-out: Plant response rating, Foxtail, Giant): 0%
- pest or weed control at 125 g/ha ([10]; pre-emergence, Preemergence, scale 0 to 100 (0 no effect, 100 complete control), read-out: Plant response rating, Foxtail, Giant): 0%
- pest or weed control at 500 g/ha ([10]; pre-emergence, Preemergence, scale 0 to 100 (0 no effect, 100 complete control), read-out: Foxtail, Giant plant response rating): 0%
- pest or weed control at 125 g/ha ([11]; post-emergence, Postemergence, scale 0 to 100 (0 no effect, 100 complete control), read-out: Velvetleaf plant response rating): 50%
- pest or weed control at 500 g/ha ([11]; post-emergence, Postemergence, scale 0 to 100, read-out: Plant response rating, Velvetleaf): 80%
- pest or weed control at 125 g/ha ([11]; pre-emergence, Preemergence, scale 0 to 100 (0 no effect, 100 complete control), read-out: Plant response rating, Velvetleaf): 10%
- pest or weed control at 500 g/ha ([11]; pre-emergence, Preemergence, scale 0 to 100 (0 no effect, 100 complete control), read-out: Velvetleaf plant response rating): 70%
- pest or weed control at 125 g/ha ([12]; post-emergence, Postemergence, scale 0 to 100 (0 no effect, 100 complete control), read-out: Cocklebur plant response rating): 80%
- pest or weed control at 500 g/ha ([12]; post-emergence, Postemergence, scale 0 to 100, read-out: Plant response rating, Cocklebur): 90%
- pest or weed control at 125 g/ha ([12]; pre-emergence, Preemergence, scale 0 to 100 (0 no effect, 100 complete control), read-out: Plant response rating, Cocklebur): 40%
- pest or weed control at 500 g/ha ([12]; pre-emergence, Preemergence, scale 0 to 100 (0 no effect, 100 complete control), read-out: Cocklebur plant response rating): 70%
- pest or weed control at 125 g/ha ([13]; post-emergence, Postemergence, scale 0 to 100 (0 no effect, 100 complete control), read-out: Lambsquarters plant response rating): 80%
- pest or weed control at 500 g/ha ([13]; post-emergence, Postemergence, scale 0 to 100, read-out: Plant response rating, Lambsquarters): 90%
- pest or weed control at 125 g/ha ([13]; pre-emergence, Preemergence, scale 0 to 100 (0 no effect, 100 complete control), read-out: Plant response rating, Lambsquarters): 40%
- pest or weed control at 500 g/ha ([13]; pre-emergence, Preemergence, scale 0 to 100 (0 no effect, 100 complete control), read-out: Lambsquarters plant response rating): 90%
- plant injury at 125 g/ha (corn (Zea mays); post-emergence, Postemergence, 125 g ai/ha, scale 0 to 100 (0 no effect, 100 complete control), read-out: Corn plant response rating): 0%
- Corn plant response rating (crop injury, 0 = no effect, 100 = complete kill) at 500 g/ha (corn (Zea mays); post-emergence, Postemergence, 500 g ai/ha, scale 0 to 100): 0%
- Corn plant response rating (crop injury, 0 = no effect, 100 = complete kill) at 125 g/ha (corn (Zea mays); pre-emergence, Preemergence, 125 g ai/ha, scale 0 to 100 (0 no effect, 100 complete control)): 0%
- plant injury at 500 g/ha (corn (Zea mays); pre-emergence, Preemergence, 500 g ai/ha, scale 0 to 100 (0 no effect, 100 complete control), read-out: Corn plant response rating): 0%
- pest or weed control at 125 g/ha ([14]; post-emergence, Postemergence, scale 0 to 100 (0 no effect, 100 complete control), read-out: Barnyardgrass plant response rating): 10%
- pest or weed control at 500 g/ha ([14]; post-emergence, Postemergence, scale 0 to 100, read-out: Plant response rating, Barnyardgrass): 30%
- pest or weed control at 125 g/ha ([14]; pre-emergence, Preemergence, scale 0 to 100 (0 no effect, 100 complete control), read-out: Plant response rating, Barnyardgrass): 0%
- pest or weed control at 500 g/ha ([14]; pre-emergence, Preemergence, scale 0 to 100 (0 no effect, 100 complete control), read-out: Barnyardgrass plant response rating): 0%
